Where two headings read alike, the source gives them in different places.
What was measured:
[1] = test system: cellular DNA of tumor and normal rectal mucosa; settings: cited from earlier work
[2] = test system: cellular DNA of tumor and normal rectal mucosa; experiment: Clinical trial of ci BUdR in locally advanced cervical cancer: DNA incorporation; assay type: in vivo, human
[3] = test system: cellular DNA of tumor and normal tissues; settings: cited from earlier work
[4] = test system: human bladder cancer cell line; settings: IUdR for 48 hours prior to one-hour exposure to cisplatin; cited from earlier work
high-grade sarcomas = settings: cited from earlier work
[5] = IV or IA IUdR; cited from earlier work
in vivo = experiment: in vivo
Description: No further dose escalations were used because of the increased risk of pulmonary aspiration with larger drug volumes (≥2000 mg/kg/d).

[6] = IV IUdR
[7] = test system: high-grade primary brain tumors; settings: cited from earlier work; for Median survival (Months): RT + IUdR
[8] = test system: cellular DNA of tumor and normal tissues; experiment: Clinical Phase I/II trials of ci IUdR + RT: % IUdR-DNA cellular incorporation, plasma level, toxicity; assay type: in vivo, human
Description: In the prior clinical Phase I and II trials of continuous intravenous infusions of IUdR+RT for high-grade gliomas (Table 1), high-grade sarcomas (Table 2), in patients with liver metastases for colorectal cancer, and in patients with head and neck cancers, the % IUdR-DNA cellular incorporation was measured in tumor tissue as well as normal tissues, including normal liver and in circulating blood cells (granulocytes).

[9] = test system: human bladder and cervical cancer cells; settings: cited from earlier work

For `O=c1[nH]c(=O)n([C@H]2C[C@H](O)[C@@H](CO)O2)cc1Br` [BUdR, bromodeoxyuridine], which “tumor cell IUdR-DNA incorporation” value ([1]; ci BUdR 1000 mg/M^2/day×4 days, Day 5) is on record?
The value was 5-8%.

And the “IUdR-DNA incorporation in adjacent normal rectal mucosa cells” value ([1]; ci BUdR)?
The value was 3-4%.

And the “ratio of tumor to rectum” value [2]?
Its value is 1.5-1.8 fold.

For `O=c1[nH]c(=O)n([C@H]2C[C@H](O)[C@@H](CO)O2)cc1I` [IUdR, 5-iodo-2′-deoxyuridine], which “% IUdR-DNA levels” value ([3]; 5-7 day ci IUdR infusion, locally advanced head & neck cancers) is on record?
The value was > 5%.

And the “IUdR-DNA tumor cell levels (plateau)” value ([3]; ci IUdR 1000 mg/M^2, within 5 days, H&N SCC)?
Its value is 7.5-8%.

What about the “steady state plasma concentration” value ([3]; ci IUdR exposure that produced clinical responses) of the same compound?
The value was 1 µM.

What about the local control ([3]; ci IUdR+RT, locally advanced head & neck cancers) of the same compound?
Its local control is “high local control rate”.

And the “% IUdR-DNA levels in peripheral granulocytes that predicted systemic bone marrow toxicity” value ([3]; ci IUdR)?
Its value is 6%.

What about the “plasma level of IUdR to achieve >3% IUdR-DNA cellular incorporation” value ([3]; ci IUdR) of the same compound?
Its value is > 1000 nM.

What about the “threshold of % IUdR-DNA tumor cell incorporation associated with in vivo radiosensitization” value ([3]; human, in vivo) of the same compound?
Its value is ≥ 3%.

What about the “toxicities of prolonged ci of IUdR” value ([3]; human, in vivo) of the same compound?
The value was “myelosuppression and acute GI toxicities”.

What about the “% IUdR-DNA cellular incorporation in tumors” value ([3]; patients with head and neck cancers or liver metastases from colorectal cancer) of the same compound?
Its value is 5-8%.

What about the “% IUdR-DNA cellular incorporation in adjacent normal liver tissue” value ([3]; patients with liver metastases) of the same compound?
Its value is “less than 1%”.

And the “dose-modifying factors at 10% survival” value [4]?
Its value is “up to 3.5”.

And the “Local Control at 2 years” value (high-grade sarcomas; High grade sarcomas (resectable), RT + IUdR + Surgery, RT + Surgery 25%)?
Its value is 45%.

What about the “Local Control at 2 years” value (high-grade sarcomas; High grade sarcomas (un-resectable), RT + IUdR, RT alone <10%) of the same compound?
The value was 60%.

What about the plasma half-life [5] of the same compound?
The plasma half-life was < 5 min.

And the weight loss (in vivo; ci IUdR 100 mg/kg/d, by day 6)?
The weight loss was ≥ 20%.

And the “GI toxicity, body weight loss” value (in vivo; ci IUdR×6-14 days, xenograft studies)?
The value was > 20%.

And the MTD at 4 days (in vivo; mouse, in vivo, po, 250 mg/kg/d)?
The MTD at 4 days was 250 mg/kg/day.

What about the LD50 [6] of the same compound?
Its LD50 is “never reached”.

What about the “Median survival (Months)” value ([7]; Anaplastic astrocytomas (Grade 3 of 4), RT alone 24) of the same compound?
The value was 39 Months.

And the “Median survival (Months)” value ([7]; Glioblastoma Multiforme (Grade 4 of 4), RT alone 9)?
Its value is 15 Months.

And the “prolongation of survival compared to RT alone” value ([7]; ci IUdR+RT)?
Its value is “greater than 50%”.

And the DNA-replacement/day ([8]; ci IUdR 1000 mg/M^2, H&N SCC)?
Its DNA-replacement/day is 1.3%.

And the “TI of ci IUdR in the clinical studies” value ([8]; from % IUdR-DNA incorporation at grade 3 or 4 toxicities)?
Its value is ~1.

What about the radiation sensitizer enhancement ([9]; IUdR (2 μM) + hydroxyurea) of the same compound?
The radiation sensitizer enhancement was “approximately 1.75”.

And the “increase in IdUTP pools and IUdR-DNA incorporation” value ([9]; IUdR (2 μM) + non-cytotoxic doses of hydroxyurea)?
The value was 2 fold.

— US11058702B2 (EMEK, Inc., priority 2014, dated 2021)
